Measurements reported in BindingDB's records for doi:10.1021/jm020384z (Aventis Pharmaceuticals, 2003).

How the values were obtained:
Coagulation factor X = Coagulation factor X (Homo sapiens, UniProt P00742); test: In vitro binding affinity for human Coagulation factor X
Serine protease 1 = Serine protease 1 (Homo sapiens, UniProt P07477); test: Binding affinity towards trypsin
Prothrombin = Prothrombin (Homo sapiens, UniProt P00734); test: Binding affinity towards thrombin

Coagulation factor X, sequence (P00742 41-179 limits assumed): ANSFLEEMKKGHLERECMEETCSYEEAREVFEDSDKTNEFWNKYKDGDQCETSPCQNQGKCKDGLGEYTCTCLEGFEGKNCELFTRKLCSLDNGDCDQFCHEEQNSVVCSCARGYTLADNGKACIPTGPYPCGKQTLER
Coagulation factor X, sequence (P00742 235-488 limits assumed): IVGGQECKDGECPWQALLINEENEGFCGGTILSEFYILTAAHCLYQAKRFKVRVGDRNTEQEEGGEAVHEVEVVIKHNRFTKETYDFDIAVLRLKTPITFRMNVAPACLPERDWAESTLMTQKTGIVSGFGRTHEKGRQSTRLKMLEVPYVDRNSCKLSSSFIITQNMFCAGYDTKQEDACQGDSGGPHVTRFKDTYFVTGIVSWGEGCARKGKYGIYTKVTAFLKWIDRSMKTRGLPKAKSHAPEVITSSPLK
Serine protease 1, sequence (P07477 whole entry): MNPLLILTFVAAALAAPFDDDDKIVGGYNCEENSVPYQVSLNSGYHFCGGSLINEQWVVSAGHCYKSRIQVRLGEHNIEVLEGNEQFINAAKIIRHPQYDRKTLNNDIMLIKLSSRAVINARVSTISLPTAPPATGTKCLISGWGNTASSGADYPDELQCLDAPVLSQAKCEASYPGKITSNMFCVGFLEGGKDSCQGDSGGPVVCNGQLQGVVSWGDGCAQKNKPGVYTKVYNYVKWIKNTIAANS

SMILES	Ki (Coagulation factor X)	Ki (Serine protease 1)	Ki (Prothrombin)
O=C1CN(S(=O)(=O)c2ccc(-c3ccc(Cl)cc3)cc2)CCN1Cc1cc2cnccc2[nH]1 [4-(4'-Chloro-biphenyl-4-sulfonyl)-1-(1H-pyrrolo[3,2-c]pyridin-2-ylmethyl)-piperazin-2-one]	> 1200 nM	–	–
O=C1CN(S(=O)(=O)c2cc3ccc(Cl)cc3s2)CCN1Cc1nc2ccncc2[nH]1 [4-(6-Chloro-benzo[b]thiophene-2-sulfonyl)-1-(1H-imidazo[4,5-c]pyridin-2-ylmethyl)-piperazin-2-one]	> 1200 nM	> 2900 nM	> 3900 nM
O=C1CN(S(=O)(=O)c2sc3ccccc3c2Cl)CCN1Cc1cc2cnccc2[nH]1 [4-(3-Chloro-benzo[b]thiophene-2-sulfonyl)-1-(1H-pyrrolo[3,2-c]pyridin-2-ylmethyl)-piperazin-2-one]	> 1200 nM	–	–
O=C1CN(S(=O)(=O)c2cc3ncccc3s2)CCN1Cc1cc2cnccc2[nH]1 [1-(1H-Pyrrolo[3,2-c]pyridin-2-ylmethyl)-4-(thieno[3,2-b]pyridine-2-sulfonyl)-piperazin-2-one]	> 1200 nM	–	–
COc1cc(C=CS(=O)(=O)N2CCN(Cc3cc4cnccc4[nH]3)C(=O)C2)sc1Cl [4-[2-(5-Chloro-4-methoxy-thiophen-2-yl)-ethenesulfonyl]-1-(1H-pyrrolo[3,2-c]pyridin-2-ylmethyl)-piperazin-2-one]	> 1200 nM	–	–
O=C1CN(S(=O)(=O)c2cc3ccc(Cl)cc3s2)CCN1Cc1cc2c(=O)[nH]ccc2[nH]1 [2-[4-(6-Chloro-benzo[b]thiophene-2-sulfonyl)-2-oxo-piperazin-1-ylmethyl]-1,5-dihydro-pyrrolo[3,2-c]pyridin-4-one]	> 1200 nM	> 2900 nM	> 3900 nM
O=C1CN(S(=O)(=O)c2cc3cccnc3s2)CCN1Cc1cc2cnccc2[nH]1 [1-(1H-Pyrrolo[3,2-c]pyridin-2-ylmethyl)-4-(thieno[2,3-b]pyridine-2-sulfonyl)-piperazin-2-one]	> 1200 nM	–	–
O=C1CN(S(=O)(=O)c2cc3ccc(Cl)cc3s2)CCN1Cc1cc2ncccc2[nH]1 [4-(6-Chloro-benzo[b]thiophene-2-sulfonyl)-1-(1H-pyrrolo[3,2-b]pyridin-2-ylmethyl)-piperazin-2-one]	> 1200 nM	> 2900 nM	> 3900 nM
